Test results reported in ChEMBL document CHEMBL1201862, “PubChem BioAssay data set” (2004).
Active and inactive are the calls of the source.

Legend:
[1] = Luminescence Cell-Based Dose Response HTS to Identify Inhibitors of 5'UTR Stem-Loop Driven Prion Protein mRNA Translation in H4 Neuroglioblastoma Cells. [Related pubchem assays: 1827 (Project Summary), 1813 (Primary HTS)]; type: functional
[2] = luciferase reporter signal suppression in cells – H4 neuroglioma cells, luminescence, dose response (AID 1990); type: functional, cell-based
[3] = alpha-synuclein stem-loop luciferase translation blockers – H4 neuroglioma cells, luminescence, confirmation (AID 1988); type: functional, cell-based
[4] = target: Heat shock protein HSP 90-alpha (Homo sapiens, UniProt P07900); type: functional, organism-based
Hexokinase HKDC1 = target: T1, Hexokinase HKDC1 (Homo sapiens, UniProt Q2TB90); assay: inhibition of HKDC1 glucose phosphorylation – biochemical, W721R variant, dose response (AID 504729); type: functional
T1 sequence (Q2TB90 whole entry): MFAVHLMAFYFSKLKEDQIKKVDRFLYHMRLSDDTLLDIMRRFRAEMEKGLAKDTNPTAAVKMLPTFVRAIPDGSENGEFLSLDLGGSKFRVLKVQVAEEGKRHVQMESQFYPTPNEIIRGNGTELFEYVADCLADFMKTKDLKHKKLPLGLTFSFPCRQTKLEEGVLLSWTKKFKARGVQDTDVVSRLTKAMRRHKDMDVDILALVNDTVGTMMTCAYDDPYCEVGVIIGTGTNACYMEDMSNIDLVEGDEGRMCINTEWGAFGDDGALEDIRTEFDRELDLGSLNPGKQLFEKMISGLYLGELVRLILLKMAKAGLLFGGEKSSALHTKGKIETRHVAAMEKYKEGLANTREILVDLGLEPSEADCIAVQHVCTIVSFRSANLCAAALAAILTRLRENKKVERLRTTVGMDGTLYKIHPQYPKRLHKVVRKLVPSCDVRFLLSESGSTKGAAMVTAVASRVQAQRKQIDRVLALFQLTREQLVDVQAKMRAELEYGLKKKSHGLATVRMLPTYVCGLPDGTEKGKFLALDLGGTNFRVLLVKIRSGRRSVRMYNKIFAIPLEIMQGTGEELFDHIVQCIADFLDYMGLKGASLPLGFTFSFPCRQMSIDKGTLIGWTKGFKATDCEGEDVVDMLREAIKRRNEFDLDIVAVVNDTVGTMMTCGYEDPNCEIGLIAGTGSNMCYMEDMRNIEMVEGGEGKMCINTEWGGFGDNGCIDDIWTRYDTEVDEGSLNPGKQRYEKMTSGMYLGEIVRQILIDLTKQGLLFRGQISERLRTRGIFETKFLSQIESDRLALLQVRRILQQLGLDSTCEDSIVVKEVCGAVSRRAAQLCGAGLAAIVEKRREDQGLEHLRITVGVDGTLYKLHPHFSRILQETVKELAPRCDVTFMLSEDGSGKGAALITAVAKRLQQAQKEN

[5] = DRD fibroblast viability loss – cell-based, non-viral oncogenic, luminescence, dose response (AID 1934); type: functional; conditions: Homo sapiens
BJ [6] = assay: cells; type: functional, cell-based; conditions: Homo sapiens
BJ [7] = assay: BJ-TERT fibroblast viability loss – cell-based, RAS-independent, luminescence, dose response (AID 1933); type: functional; conditions: Homo sapiens
Mu-type opioid receptor = Mu-type opioid receptor (Homo sapiens, UniProt P35372); assay: HTS Image-Based Screen for Agonists of the MOR Receptor. [Related pubchem assays (depositor defined):AID1777, AID1785, AID1786, AID2133]; type: functional;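 further: imaging of beta-arrestin GFP recruitment into spots after receptor activation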
SUMO-activating enzyme = SUMO-activating enzyme (Homo sapiens, UniProt Q9UBT2); assay: blockers of SAE1/SAE2–UBC9 SUMO transfer – biochemical, HTRF, uHTS, primary screen (AID 2006); type: protein-complex assay
[8] = target: T2, Sentrin-specific protease 6 (Homo sapiens, UniProt Q9GZR1); type: functional;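 further: Luminescence-based dose-response confirmatory assay of SENP6 inhibition, following up an ultra-high-throughput screen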
T2 sequence (Q9GZR1 whole entry): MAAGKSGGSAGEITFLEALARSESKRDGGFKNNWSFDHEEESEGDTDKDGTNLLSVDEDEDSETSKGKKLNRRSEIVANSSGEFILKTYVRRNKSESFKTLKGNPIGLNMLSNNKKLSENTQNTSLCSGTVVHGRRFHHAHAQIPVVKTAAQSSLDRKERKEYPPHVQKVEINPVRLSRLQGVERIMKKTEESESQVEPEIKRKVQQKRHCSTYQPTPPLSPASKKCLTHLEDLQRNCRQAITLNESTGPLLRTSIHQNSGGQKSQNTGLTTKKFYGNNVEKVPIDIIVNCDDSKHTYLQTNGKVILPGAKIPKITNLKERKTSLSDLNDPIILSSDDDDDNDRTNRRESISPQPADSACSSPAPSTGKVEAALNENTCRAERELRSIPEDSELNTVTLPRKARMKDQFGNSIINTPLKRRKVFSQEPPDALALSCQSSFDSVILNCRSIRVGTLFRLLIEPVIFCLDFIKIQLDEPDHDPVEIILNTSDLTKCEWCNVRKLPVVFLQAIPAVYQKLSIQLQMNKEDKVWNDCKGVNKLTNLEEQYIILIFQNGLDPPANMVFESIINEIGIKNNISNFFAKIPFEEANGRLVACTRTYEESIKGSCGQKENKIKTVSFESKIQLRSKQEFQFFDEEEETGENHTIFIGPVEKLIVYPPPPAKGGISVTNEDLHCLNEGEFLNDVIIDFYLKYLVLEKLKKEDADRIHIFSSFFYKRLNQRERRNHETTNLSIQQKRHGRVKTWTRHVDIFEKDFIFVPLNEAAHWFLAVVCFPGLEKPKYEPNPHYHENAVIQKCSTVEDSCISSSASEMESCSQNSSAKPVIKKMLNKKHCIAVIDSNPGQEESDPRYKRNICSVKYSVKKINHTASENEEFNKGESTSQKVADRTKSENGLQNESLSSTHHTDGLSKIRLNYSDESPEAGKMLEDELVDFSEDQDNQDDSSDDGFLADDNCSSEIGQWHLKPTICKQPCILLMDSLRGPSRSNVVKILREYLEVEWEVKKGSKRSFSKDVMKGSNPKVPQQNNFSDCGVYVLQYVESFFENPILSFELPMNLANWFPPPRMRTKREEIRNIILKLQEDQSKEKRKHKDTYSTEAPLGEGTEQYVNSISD

[9] = blockers of HIV-1 envelope-mediated cell-cell fusion – cherry-pick, dose response (AID 652057); type: functional, cell-based
[10] = viability loss in CEM21 cells – cell-based, CellTiter-Glo luminescence, cherry-picked, cytotoxicity control for viral fusion inhibitor project, dose response (AID 652042); type: functional;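 further: potency for signal decrease meaning cytotoxicity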
[11] = target: Photoreceptor-specific nuclear receptor (Homo sapiens, UniProt Q9Y5X4); type: functional;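 further: potency for compounds that break the NR2E3 corepressor complex and count as activators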
Chain of Photoreceptor-specific nuclear receptor (Q9Y5X4 whole entry): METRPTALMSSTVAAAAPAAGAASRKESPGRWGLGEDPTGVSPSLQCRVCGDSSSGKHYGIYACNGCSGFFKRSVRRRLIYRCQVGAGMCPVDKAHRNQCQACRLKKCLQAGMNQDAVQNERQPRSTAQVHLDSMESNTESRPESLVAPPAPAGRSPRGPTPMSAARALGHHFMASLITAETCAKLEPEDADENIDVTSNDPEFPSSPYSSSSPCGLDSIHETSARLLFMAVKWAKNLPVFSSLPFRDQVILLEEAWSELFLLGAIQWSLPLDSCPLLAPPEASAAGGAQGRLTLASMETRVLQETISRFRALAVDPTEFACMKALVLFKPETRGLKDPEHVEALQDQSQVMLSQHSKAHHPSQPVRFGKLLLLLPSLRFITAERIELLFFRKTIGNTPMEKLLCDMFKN

Chain of SUMO-activating enzyme (Q9UBE0 whole entry): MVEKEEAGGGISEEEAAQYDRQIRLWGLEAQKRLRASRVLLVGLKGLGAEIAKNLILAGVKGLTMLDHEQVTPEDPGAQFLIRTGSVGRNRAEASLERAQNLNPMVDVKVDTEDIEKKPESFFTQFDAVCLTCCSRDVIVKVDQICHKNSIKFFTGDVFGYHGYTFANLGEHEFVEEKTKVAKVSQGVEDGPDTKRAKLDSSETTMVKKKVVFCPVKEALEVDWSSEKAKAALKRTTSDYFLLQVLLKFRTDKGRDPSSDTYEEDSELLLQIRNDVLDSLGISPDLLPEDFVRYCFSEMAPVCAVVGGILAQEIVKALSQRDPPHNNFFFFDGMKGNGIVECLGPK
Chain of SUMO-activating enzyme (Q9UBT2 whole entry): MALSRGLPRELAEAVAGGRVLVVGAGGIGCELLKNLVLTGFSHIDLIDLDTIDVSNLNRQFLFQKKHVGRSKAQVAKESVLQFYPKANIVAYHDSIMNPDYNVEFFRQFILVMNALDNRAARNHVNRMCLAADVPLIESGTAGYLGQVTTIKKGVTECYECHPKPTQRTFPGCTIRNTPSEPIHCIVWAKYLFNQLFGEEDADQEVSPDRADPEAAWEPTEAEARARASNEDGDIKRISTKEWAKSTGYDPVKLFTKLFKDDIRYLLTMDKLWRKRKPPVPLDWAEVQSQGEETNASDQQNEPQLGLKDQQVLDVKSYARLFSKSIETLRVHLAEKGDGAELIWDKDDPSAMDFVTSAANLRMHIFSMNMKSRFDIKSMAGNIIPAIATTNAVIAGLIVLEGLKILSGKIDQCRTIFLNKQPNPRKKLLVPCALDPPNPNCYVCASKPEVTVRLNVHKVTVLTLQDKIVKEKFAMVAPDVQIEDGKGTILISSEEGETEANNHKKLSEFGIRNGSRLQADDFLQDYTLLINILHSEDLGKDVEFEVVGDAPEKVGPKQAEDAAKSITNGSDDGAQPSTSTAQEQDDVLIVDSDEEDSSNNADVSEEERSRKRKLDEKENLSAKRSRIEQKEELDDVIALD
Chain of Mu-type opioid receptor (P35372 whole entry): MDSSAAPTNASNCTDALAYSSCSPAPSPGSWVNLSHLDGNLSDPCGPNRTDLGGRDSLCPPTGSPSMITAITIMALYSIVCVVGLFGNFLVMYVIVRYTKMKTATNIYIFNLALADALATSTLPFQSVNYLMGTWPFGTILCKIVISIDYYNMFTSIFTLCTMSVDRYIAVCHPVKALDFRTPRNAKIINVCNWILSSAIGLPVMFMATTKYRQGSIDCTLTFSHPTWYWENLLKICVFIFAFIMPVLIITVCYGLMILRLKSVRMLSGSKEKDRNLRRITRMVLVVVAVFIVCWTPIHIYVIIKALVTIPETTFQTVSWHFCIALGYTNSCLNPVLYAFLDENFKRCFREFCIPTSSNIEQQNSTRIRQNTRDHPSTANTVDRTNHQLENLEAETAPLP

## O=C1c2cc(F)ccc2-n2c1nc1ccccc1c2=O
[1]
  EC50: > 120 µM (not active)
[2]
  EC50: 10 µM (inconclusive)
[3]
  EC50: 8.84 µM (active)
[4]
  AC50: 3.73 µM (active)

## CCOC(=O)C1=C(c2ccc(OC)cc2)C(=O)c2ccccc2C1=O
Hexokinase HKDC1
  IC50: 2.32 µM (active)

## COCCCNC(=O)c1ccc2c3c(onc13)-c1ccccc1C2=O
[5]
  EC50: 8.59 µM (active)
BJ [6]
  EC50: > 150 µM (not active)
BJ [7]
  EC50: 8.03 µM (inconclusive)

## CCC(=O)OCCNc1cc(Sc2nccn2C)c2nonc2c1[N+](=O)[O-]
Mu-type opioid receptor
  EC50: > 32 µM (inactive)

## CCCCn1c(NC(=O)c2ccccc2Cl)c(C#N)c2nc3ccccc3nc21
SUMO-activating enzyme
  IC50: 2.82 µM (active)
[8]
  IC50: 0.986 µM (active)

## CCc1ccc(OCC(=O)N/N=C2\CC(=O)c3ccccc32)cc1
[8]
  IC50: 4.06 µM (active)

## O=C1C(=O)c2ccccc2-c2ccccc21 [9,10-PHENANTHRENEQUINONE]
[5]
  EC50: 4.95 µM (inconclusive)
[9]
  AC50: 4.53 µM (active)
[10]
  AC50: 1.93 µM (active)
[11]
  IC50: > 39.8 µM (not active)
BJ [6]
  EC50: 5.99 µM (inconclusive)
BJ [7]
  EC50: 1.96 µM (active)
